The text below walks through data of ChEMBL document CHEMBL1926630, “Structure-activity relationships of chalcone analogs as potential inhibitors of ADP- and collagen-induced platelet aggregation” (2011).

Test [1] can be described thus: cells. The conditions noted are these: Oryctolagus cuniculus, New Zealand white, Platelet, read-out: INH.
Description: Antiplatelet activity against New Zealand white rabbit platelets assessed as inhibition of ADP-induced platelet aggregation at 9.6 ug/mL treated 2 mins before ADP challenge measured after 4 mins by turbidimetric analysis
Test [2] is described as follows: cells. To be noted: Oryctolagus cuniculus, New Zealand white, Platelet, read-out: INH. The source holds these as a separate data set.
Description: Antiplatelet activity against New Zealand white rabbit platelets assessed as inhibition of collagen-induced platelet aggregation at 9.6 ug/mL treated 2 mins before collagen challenge measured after 4 mins by turbidimetric analysis

For `COC(=O)[C@H](c1ccccc1Cl)N1CCc2sccc2C1` [CLOPIDOGREL], the results for the inhibition at 9.6 µg/mL in test [1] and in test [2] were 85.2% and 3.5%, respectively.
